Patent US20220073554A1, “LINCOSAMIDE ANTIBIOTICS AND USES THEREOF” (President and Fellows of Harvard College, priority 2017, published 2022)
≈ marks a conversion by molar mass, not a printed value. Read-outs that look alike come from different tables or passages of the source.

How the values were obtained:
Format in all cases: cell-based
[1] = system: S. pyogenes ATCC 19615; experiment: MIC against S. pyogenes ATCC 19615; conditions: Streptococcus pyogenes, ATCC19615; S. pyogenes ATCC 19615; read-out: MIC
[2] = system: E. faecalis ATCC 29212; experiment: MIC against E. faecalis ATCC 29212; conditions: Enterococcus faecalis
[3] = system: S. pneumoniae ATCC 49619; experiment: MIC against S. pneumoniae ATCC 49619; conditions: Streptococcus pneumoniae, ATCC49619; S. pneumoniae ATCC 49619; read-out: MIC
[4] = system: E. coli ATCC 25922; experiment: MIC against E. coli ATCC 25922; conditions: Escherichia coli, ATCC25922
[5] = system: S. aureus ATCC 29213; experiment: MIC against S. aureus ATCC 29213; conditions: Staphylococcus aureus
[6] = system: S. aureus MP-549 msr(a) USA 300; experiment: MIC against S. aureus MP-549 msr(a) USA 300; conditions: Staphylococcus aureus, USA300, S. aureus MP-549 msr(a) USA 300
[7] = system: H. influenzae ATCC 49247; experiment: MIC against H. influenzae ATCC 49247; conditions: Haemophilus influenzae, ATCC49247
[8] = system: S. aureus MMX 3035 cErmA; experiment: MIC against S. aureus MMX 3035 cErmA; conditions: Staphylococcus aureus, MMX3035CERMA; S. aureus MMX 3035 cErmA; read-out: MIC
[9] = system: S. aureus BAA 977 iErmA; experiment: MIC against S. aureus BAA 977 iErmA; conditions: Staphylococcus aureus, BAA977
[10] = system: E. faecalis MMX 847 Macrolide-Resistant; experiment: MIC against E. faecalis MMX 847 Macrolide-Resistant; conditions: Enterococcus faecalis; E. faecalis MMX 847 Macrolide-Resistant (MacRes); read-out: MIC
[11] = system: S. pyogenes MMX 946 Macrolide-Resistant; experiment: MIC against S. pyogenes MMX 946 Macrolide-Resistant; conditions: Streptococcus pyogenes; S. pyogenes MMX 946 Macrolide-Resistant (MacRes); read-out: MIC
[12] = system: E. coli MP-74 LptD mutant; experiment: MIC against E. coli MP-74 LptD mutant; conditions: Escherichia coli
[13] = system: E. coli MP-9 ΔTolC; experiment: MIC against E. coli MP-9 ΔTolC; conditions: Escherichia coli
[14] = system: K. pneumoniae ATCC 10031; experiment: MIC against K. pneumoniae ATCC 10031; conditions: Klebsiella pneumoniae, ATCC10031
[15] = E. coli ATCC 25922, read-out: MIC
[16] = ATCC29213, S. aureus ATCC 29213, read-out: MIC
[17] = H. influenzae ATCC 49247, read-out: MIC

| SMILES | MIC [1] | MIC ([2]; ATCC29212, read-out: MIC) | MIC [3] | MIC [4, 15] | MIC [5, 16] | MIC [6] | MIC [7, 17] | MIC [8] | MIC [9] | MIC [10] | MIC [11] | MIC [7] | MIC [12] | MIC [4] | MIC [13] | MIC [14] | MIC ([5]; ATCC29213) | MIC ([2]; ATCC29212) |
| --- | --- | --- | --- | --- | --- | --- | --- | --- | --- | --- | --- | --- | --- | --- | --- | --- | --- | --- |
| CSC1O[C@H]([C@H](NC(=O)[C@H]2NC[C@@H]3CC(c4ccc(C#N)cc4)=CCO[C@H]32)[C@H](C)Cl)C(O)[C@@H](O)[C@H]1O (stereo partly shown) [FSA-511033] | ≤ 0.06 µg/mL | 2 µg/mL (≈ 3.72 µM) | ≤ 0.06 µg/mL | > 64 µg/mL | 0.5 µg/mL (≈ 0.929 µM) | 1 µg/mL (≈ 1.86 µM) | – | – | – | – | – | – | – | – | – | – | – | – |
| CSC1O[C@H]([C@H](NC(=O)[C@H]2NC[C@@H]3C=C(c4cc(F)cc(F)c4)CCO[C@@H]23)[C@H](C)Cl)C(O)[C@@H](O)[C@H]1O (stereo partly shown) [FSA-511074] | 0.5 µg/mL (≈ 0.911 µM) | 4 µg/mL (≈ 7.29 µM) | – | > 64 µg/mL | 2 µg/mL (≈ 3.64 µM) | 1 µg/mL (≈ 1.82 µM) | > 64 µg/mL | > 64 µg/mL | 2 µg/mL (≈ 3.64 µM) | > 64 µg/mL | > 64 µg/mL | – | – | – | – | – | – | – |
| CSC1O[C@H]([C@H](NC(=O)[C@H]2NC[C@@H]3C[C@@H](C4CCN(C)CC4)CCO[C@H]32)[C@H](C)Cl)C(O)[C@@H](O)[C@H]1O (stereo partly shown) [FSA-512012] | 4 µg/mL (≈ 7.46 µM) | – | 1 µg/mL (≈ 1.87 µM) | – | 8 µg/mL (≈ 14.9 µM) | 8 µg/mL (≈ 14.9 µM) | – | – | – | – | – | > 256 µg/mL | > 256 µg/mL | > 256 µg/mL | > 256 µg/mL | – | – | – |
| CCOC(=O)CCN1C[C@@H]2CC=CCO[C@H]2[C@H]1C(=O)N[C@H]([C@H](C)Sc1ccc(-c2cccnc2)cc1)[C@H]1OC(SC)[C@H](O)[C@H](O)C1O (stereo partly shown) [FSA-214009b] | 8 µg/mL (≈ 11.6 µM) | > 64 µg/mL | – | > 64 µg/mL | ≥ 64 µg/mL | – | – | – | – | – | – | – | – | – | – | – | – | – |
| CSC1O[C@H]([C@H](NC(=O)[C@H]2NC[C@@H]3CC=CCO[C@@H]32)[C@H](C)Cl)C(O)[C@@H](O)[C@H]1O (stereo partly shown) [FSA-504059] | – | – | – | – | 2 µg/mL (≈ 4.58 µM) | 2 µg/mL (≈ 4.58 µM) | – | – | – | – | – | > 64 µg/mL | > 64 µg/mL | > 64 µg/mL | > 64 µg/mL | > 64 µg/mL | – | – |
| COc1ccc([C@@H]2CCO[C@@H]3[C@H](CN[C@@H]3C(=O)N[C@H]([C@H](C)Cl)[C@H]3OC(SC)[C@H](O)[C@H](O)C3O)C2)cc1 (stereo partly shown) [FSA-512080c] | – | – | – | – | – | – | 37 µg/mL (≈ 67.9 µM) | – | – | – | – | – | – | – | – | – | – | – |
| CSC1O[C@H]([C@H](NC(=O)[C@H]2NC[C@@H]3C=C(C#Cc4ccccc4)CCO[C@@H]23)[C@H](C)Cl)C(O)[C@@H](O)[C@H]1O (stereo partly shown) [FSA-510002] | – | 2 µg/mL (≈ 3.72 µM) | – | – | 0.5 µg/mL (≈ 0.931 µM) | – | – | – | – | – | – | – | – | > 64 µg/mL | > 64 µg/mL | – | – | – |
| CSC1O[C@H]([C@H](NC(=O)[C@H]2NC[C@@H]3C[C@H](c4ccc(C)cc4)CCO[C@H]32)[C@H](C)Cl)C(O)[C@@H](O)[C@H]1O (stereo partly shown) [FSA-512079c] | ≤ 0.12 µg/mL | 2 µg/mL (≈ 3.78 µM) | – | > 128 µg/mL | – | 0.5 µg/mL (≈ 0.945 µM) | – | – | – | – | – | – | – | – | 8 µg/mL (≈ 15.1 µM) | – | 0.5 µg/mL (≈ 0.945 µM) | – |
| CSC1O[C@H]([C@H](NC(=O)[C@H]2NC[C@@H]3CCCCO[C@@H]32)[C@H](C)Cl)C(O)[C@@H](O)[C@H]1O (stereo partly shown) [FSA-504062] | – | – | – | – | 2 µg/mL (≈ 4.56 µM) | 1 µg/mL (≈ 2.28 µM) | – | – | – | – | – | > 64 µg/mL | > 64 µg/mL | > 64 µg/mL | > 64 µg/mL | > 64 µg/mL | – | – |
| CSC1O[C@H]([C@H](NC(=O)[C@H]2NC[C@@H]3C[C@@H](C4CCNCC4)CCO[C@H]32)[C@H](C)Cl)C(O)[C@@H](O)[C@H]1O (stereo partly shown) [FSA-512011] | 4 µg/mL (≈ 7.66 µM) | – | 1 µg/mL (≈ 1.92 µM) | – | 8 µg/mL (≈ 15.3 µM) | 8 µg/mL (≈ 15.3 µM) | – | – | – | – | – | > 256 µg/mL | > 256 µg/mL | > 256 µg/mL | > 256 µg/mL | – | – | – |
| CSC1O[C@H]([C@H](NC(=O)[C@H]2NC[C@@H]3CC(NC4CC4)CCO[C@H]32)[C@H](C)Cl)C(O)[C@@H](O)[C@H]1O (stereo partly shown) [FSA-510011] | 2 µg/mL (≈ 4.05 µM) | – | 8 µg/mL (≈ 16.2 µM) | – | – | – | – | – | – | – | – | > 64 µg/mL | > 64 µg/mL | > 64 µg/mL | > 64 µg/mL | > 64 µg/mL | – | > 64 µg/mL |
| CSC1O[C@H]([C@H](NC(=O)[C@H]2NC[C@@H]3C=C(c4ccc(F)cc4F)CCO[C@@H]23)[C@H](C)Cl)C(O)[C@@H](O)[C@H]1O (stereo partly shown) [FSA-511072] | 0.95 µg/mL (≈ 1.73 µM) | 4 µg/mL (≈ 7.29 µM) | – | > 64 µg/mL | 1 µg/mL (≈ 1.82 µM) | 1 µg/mL (≈ 1.82 µM) | > 64 µg/mL | > 64 µg/mL | 1 µg/mL (≈ 1.82 µM) | > 64 µg/mL | > 64 µg/mL | – | – | – | – | – | – | – |
